Key:
Human σ1 receptor = molecular target: T1, Human σ1 receptor (Homo sapiens, UniProt Q99720); assay: Human σ1 receptor radioligand assay ([3H](+)-pentazocine binding); conditions: binding to the σ1 receptor, expressed as Ki class; + also covers inhibition between 1% and 50%
T1 construct: expressed in transfected cells; host or cells: HEK-293
In short: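 Ki was derived from five test concentrations, or % inhibition was measured at a single 1 or 10 μM dose, against 5 nM [3H](+)-pentazocine. Incubation was 120 min at 37° C in 50 mM Tris-HCl pH 8 with 7 μg HEK-293 membranes, and 10 μM haloperidol set non-specific binding. Bound radioactivity was counted after filtration.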

[1] = molecular target: Human α2δ-1 subunit of Cav2.2 calcium channel (Homo sapiens, UniProt P54289); assay: Human α2δ-1 subunit of Cav2.2 calcium channel assay ([3H]-gabapentin binding); conditions: binding to the α2δ-1 subunit of voltage-gated calcium channels, expressed as Ki class; + also covers inhibition between 1% and 50%
Human α2δ-1 subunit of Cav2.2 calcium channel, sequence (P54289 25-1103): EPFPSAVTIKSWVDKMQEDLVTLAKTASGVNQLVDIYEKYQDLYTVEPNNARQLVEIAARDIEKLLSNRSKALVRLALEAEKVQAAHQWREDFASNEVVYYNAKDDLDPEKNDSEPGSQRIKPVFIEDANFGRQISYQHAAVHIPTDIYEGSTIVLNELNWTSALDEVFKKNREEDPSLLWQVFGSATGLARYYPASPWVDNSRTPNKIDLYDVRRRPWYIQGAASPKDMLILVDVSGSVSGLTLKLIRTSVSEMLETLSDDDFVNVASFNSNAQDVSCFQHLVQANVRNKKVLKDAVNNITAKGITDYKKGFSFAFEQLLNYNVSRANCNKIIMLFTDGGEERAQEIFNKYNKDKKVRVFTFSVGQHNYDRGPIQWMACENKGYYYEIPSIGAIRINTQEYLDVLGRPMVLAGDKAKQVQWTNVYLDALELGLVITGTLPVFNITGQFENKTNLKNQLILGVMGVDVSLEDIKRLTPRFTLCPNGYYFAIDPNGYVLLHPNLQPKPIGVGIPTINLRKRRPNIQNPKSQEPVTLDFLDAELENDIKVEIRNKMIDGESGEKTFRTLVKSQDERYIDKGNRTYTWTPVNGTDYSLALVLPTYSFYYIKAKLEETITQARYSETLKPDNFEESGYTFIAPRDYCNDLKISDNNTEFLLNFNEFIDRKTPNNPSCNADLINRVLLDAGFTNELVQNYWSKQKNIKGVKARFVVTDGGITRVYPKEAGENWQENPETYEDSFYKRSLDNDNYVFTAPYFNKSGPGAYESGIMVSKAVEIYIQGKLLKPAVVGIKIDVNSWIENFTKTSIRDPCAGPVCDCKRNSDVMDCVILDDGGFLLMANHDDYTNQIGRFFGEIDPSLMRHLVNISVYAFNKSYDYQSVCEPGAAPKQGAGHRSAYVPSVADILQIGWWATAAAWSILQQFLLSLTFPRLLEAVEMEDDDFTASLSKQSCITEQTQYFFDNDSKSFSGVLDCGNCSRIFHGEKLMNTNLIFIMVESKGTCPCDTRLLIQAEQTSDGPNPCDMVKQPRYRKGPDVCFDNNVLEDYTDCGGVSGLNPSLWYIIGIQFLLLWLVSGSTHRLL
In short: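 Affinity (Ki, five concentrations) or % inhibition at 1 or 10 μM, from displacement of 15 nM [3H]-gabapentin on human α2δ-1 membranes. Incubation 60 min, 27° C., Hepes-KOH 10 mM pH 7.4; 10 μM pregabalin defined non-specific binding; bound radioactivity counted after GF/C filtration.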

T1 sequence (Q99720 whole entry): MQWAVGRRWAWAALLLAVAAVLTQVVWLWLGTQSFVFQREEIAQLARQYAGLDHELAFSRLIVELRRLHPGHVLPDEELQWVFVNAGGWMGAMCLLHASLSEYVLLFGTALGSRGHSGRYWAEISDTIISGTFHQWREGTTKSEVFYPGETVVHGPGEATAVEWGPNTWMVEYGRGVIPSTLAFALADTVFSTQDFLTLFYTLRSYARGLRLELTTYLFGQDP

SMILES	Ki (Human σ1 receptor) [nM]	Ki [1] [nM]
CCC[C@H](c1nc2ccc(Cl)cc2c(=O)n1C)N1CCN[C@@H](C)CC1 [Example 246, 6-chloro-3-methyl-2-((R)-1-((S)-5-methyl-1,4-diazepan-1-yl)butyl)quinazolin-4(3H)-one]	< 500	500 to 5000
CCC[C@@H](c1nc2cc(F)c(Br)cc2c(=O)n1CC)N1CCNC[C@H](C)C1 [Example 98]	> 1000	500 to 5000
CCC[C@@H](c1nc2ncc(Br)cc2c(=O)n1CC)N1CCN(C)C[C@@H](C)C1 [Example 189, 6-bromo-2-((S)-1-((R)-4,6-dimethyl-1,4-diazepan-1-yl)butyl)-3-ethylpyrido[2,3-d]pyrimidin-4(3H)-one]	> 1000	> 5000
CCCC(c1nc2ncc(Br)cc2c(=O)n1CC1CC1)N1CCCN(C)CC1 (stereo not drawn) [Example 183, 6-bromo-3-(cyclopropylmethyl)-2-(1-(4-methyl-1,4-diazepan-1-yl)butyl)pyrido[2,3-d]pyrimidin-4(3H)-one]	> 1000	< 500
CCC[C@H](c1nc2cc(F)c(OC)cc2c(=O)n1CC)N1CCCN(C)CC1 [Example 220, (R)-3-ethyl-7-fluoro-6-methoxy-2-(1-(4-methyl-1,4-diazepan-1-yl)butyl)quinazolin-4(3H)-one]	> 1000	< 500
CCC[C@H](c1nc2ccc(F)cc2c(=O)n1C)N1CCN[C@@H](C)CC1 [Example 256, 6-fluoro-3-methyl-2-((R)-1-((S)-5-methyl-1,4-diazepan-1-yl)butyl)quinazolin-4(3H)-one]	< 500	500 to 5000
CCCC(c1nc2ccc(Br)c(Cl)c2c(=O)n1CC)N1CCCN(CC)CC1 (stereo not drawn) [Example 83, 6-bromo-5-chloro-3-ethyl-2-(1-(4-ethyl-1,4-diazepan-1-yl)butyl)quinazolin-4(3H)-one]	< 500	> 5000
CCCC(c1nc2cc(F)c(Br)cc2c(=O)n1CCC)N1CCCNCC1 (stereo not drawn) [Example 34, 2-(1-(1,4-diazepan-1-yl)butyl)-6-bromo-7-fluoro-3-propylquinazolin-4(3H)-one]	> 1000	< 500
CCC[C@H](c1nc2ccc(Br)cc2c(=O)n1CC)N1CCN2CCC1CC2 [Example 66, (R)-2-(1-(1,4-diazabicyclo[3.2.2]nonan-4-yl)butyl)-6-bromo-3-ethylquinazolin-4(3H)-one]	> 1000	> 5000
CCCC(c1nc2ccc(Br)cc2c(=O)n1CC)N1CCN2CCC1CC2 (stereo not drawn) [Example 80, 2-(1-(1,4-diazabicyclo[3.2.2]nonan-4-yl)butyl)-6-bromo-3-ethylquinazolin-4(3H)-one]	> 1000	> 5000
CCC[C@H](c1nc2ccc(Br)cc2c(=O)n1CC)N1CCCN(CC)CC1 [Example 153, (R)-6-Bromo-3-ethyl-2-(1-(4-ethyl-1,4-diazepan-1-yl)butyl)quinazolin-4(3H)-one]	< 500	< 500
CCCC(c1nc2cc(Br)ccc2c(=O)n1CC)N1CCCNCC1 (stereo not drawn) [Example 4, 2-(1-(1,4-diazepan-1-yl)butyl)-7-bromo-3-ethylquinazolin-4(3H)-one]	> 1000	< 500
CCC[C@@H](c1nc2cc(Cl)c(Cl)cc2c(=O)n1CC)N1CCNC[C@H](C)C1 [Example 111, 6,7-dichloro-3-ethyl-2-((S)-1-((S)-6-methyl-1,4-diazepan-1-yl)butyl)quinazolin-4(3H)-one]	> 1000	500 to 5000
CCCC(c1nc2c(Cl)cc(Br)cc2c(=O)n1CC)N1CCCN(C)CC1 (stereo not drawn) [Example 49, 6-bromo-8-chloro-3-ethyl-2-(1-(4-methyl-1,4-diazepan-1-yl)butyl)quinazolin-4(3H)-one]	500 to 1000	> 5000
CCC[C@@H](c1nc2ccc(Br)cc2c(=O)n1CC)N1CCCN[C@H](C)C1 [Example 141, 6-bromo-3-ethyl-2-((S)-1-((R)-3-methyl-1,4-diazepan-1-yl)butyl)quinazolin-4(3H)-one]	500 to 1000	> 5000
CCC[C@H](c1nc2ccc(Br)cc2c(=O)n1CC)N1CCN(C)C[C@H](CO)C1 [Example 123, 6-Bromo-3-ethyl-2-((R)-1-((S)-6-(hydroxymethyl)-4-methyl-1,4-diazepan-1-yl)butyl)quinazolin-4(3H)-one]	500 to 1000	< 500
CCC[C@H](c1nc2ccc(F)cc2c(=O)n1CC)N1CCCN[C@H](C)C1 [Example 143, 3-Ethyl-6-fluoro-2-((R)-1-((R)-3-methyl-1,4-diazepan-1-yl)butyl)quinazolin-4(3H)-one]	< 500	< 500
CCCC(c1nc2ncc(F)cc2c(=O)n1CC1CC1)N1CCN[C@@H](C)CC1 (single isomer, unassigned) [Example 194]	> 1000	> 5000

— US12479830B2, “Homopiperazinyl and homopiperidinyl quinazolin-4(3H)-one derivatives having multimodal activity against pain” (ESTEVE PHARMACEUTICALS, S.A., priority 2019, dated 2025)
